Non-standard residues stand in square brackets, D forms with d. Residues, ends and D or L forms follow the SMILES beside them. *: point of attachment. Desaminotyrosyl = O=C(CCc1ccc(O)cc1)*; Abu = CC[C@H](N)C(=O)O
Tests used:
[1] = system: CD1 mice; assay: Intestinotrophic activity assessment: small bowel weight in mice; assay type: in vivo; conditions: for % Activity (small bowel inducing activity relative to native rat GLP-2(1-33) = 100%): mice, as Example 4; for % Increase in small bowel weight: CD1 mice, 2.5 μg peptide s.c. b.i.d. in PBS, sacrificed 10 or 14 days, relative to vehicle only
Summary of the method: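 Female CD1 mice, 6 weeks old (n=3-4/group), given 2.5 μg peptide s.c. b.i.d. in PBS; sacrificed 10 or 14 days later after ≥20 h fast. Small bowel (pylorus to cecum) weighed; percent change versus vehicle mice, also expressed relative to rat GLP-2(1-33) set as 100%.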

[2] = molecular target: DPP-IV (Homo sapiens, UniProt P27487); assay: Assay for resistance to dipeptidyl peptidase IV (RP-HPLC of cleavage product); conditions: human, isolated human placental DPP-IV (dipeptidyl peptidase IV), pH 7.4, % Cleaved by DPP-IV, as Example 3: human placental DPP-IV, 37° C., PBS pH 7.4
DPP-IV, sequence (P27487 whole entry): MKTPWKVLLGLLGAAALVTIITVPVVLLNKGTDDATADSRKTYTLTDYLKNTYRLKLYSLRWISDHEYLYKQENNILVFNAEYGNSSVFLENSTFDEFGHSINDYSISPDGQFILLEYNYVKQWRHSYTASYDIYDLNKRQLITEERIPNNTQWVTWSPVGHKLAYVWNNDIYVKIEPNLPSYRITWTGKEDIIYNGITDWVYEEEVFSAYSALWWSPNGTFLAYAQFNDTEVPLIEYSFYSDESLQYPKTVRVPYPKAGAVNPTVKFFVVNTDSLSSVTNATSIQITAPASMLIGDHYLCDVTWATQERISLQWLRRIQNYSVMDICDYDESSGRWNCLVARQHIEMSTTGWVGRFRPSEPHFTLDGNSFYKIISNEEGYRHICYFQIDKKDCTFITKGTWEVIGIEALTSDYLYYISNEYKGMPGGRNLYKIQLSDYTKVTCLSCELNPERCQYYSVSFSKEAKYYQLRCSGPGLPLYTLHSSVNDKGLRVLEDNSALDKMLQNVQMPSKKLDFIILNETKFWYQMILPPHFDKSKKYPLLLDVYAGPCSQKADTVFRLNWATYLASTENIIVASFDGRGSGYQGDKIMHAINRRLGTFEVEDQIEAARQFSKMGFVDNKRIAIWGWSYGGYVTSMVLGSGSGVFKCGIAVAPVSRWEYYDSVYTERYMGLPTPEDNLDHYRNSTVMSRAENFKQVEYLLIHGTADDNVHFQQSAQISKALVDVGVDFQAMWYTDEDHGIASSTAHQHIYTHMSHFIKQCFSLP
Experimental: The mixture was incubated at 37° C. in a circulating water bath for 24 hours. The incubation was quenched by the addition of 50 μl of a solution of diprotin A prepared at a concentration of 4 mg/ml in PBS. Each peptide was tested in duplicate.
Each sample was analyzed by reverse-phase (RP) HPLC as follows: 90 μl of the quenched incubation mixture was injected onto a Rainin Dynamax 300 Å, C18, 5 micron, 4.6×250 millimeter column. The samples were eluted with 0.1% trifluoroacetic acid (TFA) in water modified with 0.1% acetonitrile using a linear gradient and a flow rate of 1 ml per minute. Sample components were detected at 214 nanometers (nm). The extent of cleavage was measured by relative integration of the peak corresponding to the cleavage product compared to that of the remaining undigested parent peptide.

| metabolised at 24 h, 0.19 mg/ml [2] [%] | Compound | % Activity (small bowel inducing activity relative to native rat GLP-2(1-33) = 100%) [1] [%] | % Increase in small bowel weight [1] [%] |
| --- | --- | --- | --- |
| 60 | CC[C@H](C)[C@H](NC(=O)[C@H](Cc1ccccc1)NC(=O)[C@H](CC(=O)O)NC(=O)[C@H](CCCNC(=N)N)NC(=O)[C@H](C)NC(=O)[C@H](C)NC(=O)[C@H](CC(C)C)NC(=O)[C@H](CC(N)=O)NC(=O)[C@H](CC(=O)O)NC(=O)[C@H](CC(C)C)NC(=O)[C@@H](NC(=O)[C@@H](NC(=O)[C@H](CC(N)=O)NC(=O)[C@H](CCSC)NC(=O)[C@H](CCC(=O)O)NC(=O)[C@H](CC(=O)O)NC(=O)[C@H](CO)NC(=O)[C@H](Cc1ccccc1)NC(=O)[C@H](CO)NC(=O)CNC(=O)[C@H](CC(=O)O)NC(=O)[C@H](C)NC(=O)[C@@H](N)Cc1c[nH]cn1)[C@@H](C)O)[C@@H](C)CC)C(=O)N[C@@H](CC(N)=O)C(=O)N[C@@H](Cc1c[nH]c2ccccc12)C(=O)N[C@@H](CC(C)C)C(=O)N[C@H](C(=O)N[C@@H](CCC(N)=O)C(=O)N[C@H](C(=O)N[C@@H](CCCCN)C(=O)N[C@H](C(=O)N[C@H](C(=O)N[C@@H](CC(=O)O)C(=O)O)[C@@H](C)O)[C@@H](C)CC)[C@@H](C)O)[C@@H](C)CC [hGLP-2(1-33), reference compound] | 100 | – |
| 0 | H-HEDGSFSDEMNTILDNLAARDFINWLIQTKITD-OH [[Glu2]hGLP-2(1-33)] | 93 | – |
| 0 | H-PADGSFSDEMNTILDNLAARDFINWLIQTKITD-OH [[Pro1]hGLP-2(1-33)] | 12 | – |
| 49 | CC[C@H](NC(=O)[C@@H](N)Cc1c[nH]cn1)C(=O)N[C@@H](CC(=O)O)C(=O)NCC(=O)N[C@@H](CO)C(=O)N[C@@H](Cc1ccccc1)C(=O)N[C@@H](CO)C(=O)N[C@@H](CC(=O)O)C(=O)N[C@@H](CCC(=O)O)C(=O)N[C@@H](CCSC)C(=O)N[C@@H](CC(N)=O)C(=O)N[C@H](C(=O)N[C@H](C(=O)N[C@@H](CC(C)C)C(=O)N[C@@H](CC(=O)O)C(=O)N[C@@H](CC(N)=O)C(=O)N[C@@H](CC(C)C)C(=O)N[C@@H](C)C(=O)N[C@@H](C)C(=O)N[C@@H](CCCNC(=N)N)C(=O)N[C@@H](CC(=O)O)C(=O)N[C@@H](Cc1ccccc1)C(=O)N[C@H](C(=O)N[C@@H](CC(N)=O)C(=O)N[C@@H](Cc1c[nH]c2ccccc12)C(=O)N[C@@H](CC(C)C)C(=O)N[C@H](C(=O)N[C@@H](CCC(N)=O)C(=O)N[C@H](C(=O)N[C@@H](CCCCN)C(=O)N[C@H](C(=O)N[C@H](C(=O)N[C@@H](CC(=O)O)C(=O)O)[C@@H](C)O)[C@@H](C)CC)[C@@H](C)O)[C@@H](C)CC)[C@@H](C)CC)[C@@H](C)CC)[C@@H](C)O [[aAbu2]hGLP-2(1-33)] (H-H[Abu]DGSFSDEMNTILDNLAARDFINWLIQTKITD-OH) | 84 | – |
| 15 | CC[C@H](C)[C@H](NC(=O)[C@H](Cc1ccccc1)NC(=O)[C@H](CC(=O)O)NC(=O)[C@H](CCCNC(=N)N)NC(=O)[C@H](C)NC(=O)[C@H](C)NC(=O)[C@H](CC(C)C)NC(=O)[C@H](CC(N)=O)NC(=O)[C@H](CC(=O)O)NC(=O)[C@H](CC(C)C)NC(=O)[C@@H](NC(=O)[C@@H](NC(=O)[C@H](CC(N)=O)NC(=O)[C@H](CCSC)NC(=O)[C@H](CCC(=O)O)NC(=O)[C@H](CC(=O)O)NC(=O)[C@H](CO)NC(=O)[C@H](Cc1ccccc1)NC(=O)[C@H](CO)NC(=O)CNC(=O)[C@H](CC(=O)O)NC(=O)[C@H](C)NC(=O)CCc1ccc(O)cc1)[C@@H](C)O)[C@@H](C)CC)C(=O)N[C@@H](CC(N)=O)C(=O)N[C@@H](Cc1c[nH]c2ccccc12)C(=O)N[C@@H](CC(C)C)C(=O)N[C@H](C(=O)N[C@@H](CCC(N)=O)C(=O)N[C@H](C(=O)N[C@@H](CCCCN)C(=O)N[C@H](C(=O)N[C@H](C(=O)N[C@@H](CC(=O)O)C(=O)O)[C@@H](C)O)[C@@H](C)CC)[C@@H](C)O)[C@@H](C)CC [[desNH2Tyr1]hGLP-2(1-33)] (Desaminotyrosyl-ADGSFSDEMNTILDNLAARDFINWLIQTKITD-OH) | 125 | – |
| 0 | CC[C@H](C)[C@H](NC(=O)[C@H](Cc1ccccc1)NC(=O)[C@H](CC(=O)O)NC(=O)[C@H](CCCNC(=N)N)NC(=O)[C@H](C)NC(=O)[C@H](C)NC(=O)[C@H](CC(C)C)NC(=O)[C@H](CC(N)=O)NC(=O)[C@H](CC(=O)O)NC(=O)[C@H](CC(C)C)NC(=O)[C@@H](NC(=O)[C@@H](NC(=O)[C@H](CC(N)=O)NC(=O)[C@H](CCSC)NC(=O)[C@H](CCC(=O)O)NC(=O)[C@H](CC(=O)O)NC(=O)[C@H](CO)NC(=O)[C@H](Cc1ccccc1)NC(=O)[C@H](CO)NC(=O)CNC(=O)[C@H](CC(=O)O)NC(=O)CNC(=O)[C@@H](N)Cc1c[nH]cn1)[C@@H](C)O)[C@@H](C)CC)C(=O)N[C@@H](CC(N)=O)C(=O)N[C@@H](Cc1c[nH]c2ccccc12)C(=O)N[C@@H](CC(C)C)C(=O)N[C@H](C(=O)N[C@@H](CCC(N)=O)C(=O)N[C@H](C(=O)N[C@@H](CCCCN)C(=O)N[C@H](C(=O)N[C@H](C(=O)N[C@@H](CC(=O)O)C(=O)N[C@@H](CCCNC(=N)N)C(=O)O)[C@@H](C)O)[C@@H](C)CC)[C@@H](C)O)[C@@H](C)CC [[Gly2, Arg34]hGLP-2(1-34)] | ~250 | – |
| 0 | H-RHADGSFSDEMNTILDNLATRDFINWLIQTKITD-OH [[Arg-l]ratGLP-2(-1-33)] | 11 | – |
| 0 | H-HDDGSFSDEMNTILDNLAARDFINWLIQTKITD-OH [[Asp2]hGLP-2(1-33)] | 83 | – |
| 0 | H-HHDGSFSDEMNTILDNLAARDFINWLIQTKITD-OH [[His2]hGLP-2(1-33)] | 0 | – |

The next lines start with the compound.

| Compound | metabolised at 24 h, 0.19 mg/ml [2] [%] | % Activity (small bowel inducing activity relative to native rat GLP-2(1-33) = 100%) [1] [%] | % Increase in small bowel weight [1] [%] |
| --- | --- | --- | --- |
| H-HADGSFSDEMNTILDNLAARDFINWLIQTRITD-OH [[Arg30]hGLP-2(1-33)] | 59 | 103 | – |
| Ac-HADGSFSDEMNTILDNLATRDFINWLIQTKITD-OH [Ac-ratGLP-2(1-33)] | 0 | 44 | – |
| H-HGDGSFSDEMNTILDNLAARDFIAWLIQTKITD-OH [[Gly2,Ala24]hGLP-2(1-33)] | 0 | 139 | 67 |
| H-HADGSFSDEMNTILDNLAARDFINFLIQTKITD-OH [[Phe25]hGLP-2(1-33)] | 54 | 114 | – |
| H-HADGSFSDEMNTILDNLAARDFINYLIQTKITD-OH [[Tyr25]hGLP-2(1-33)] | 48 | 64 | – |
| H-HGAGSFSDEMNTILDNLAARDFINWLIQTKITD-OH [[Gly2,Ala3]hGLP-2(1-33)] | 0 | 44 | 18 |
| H-HMDGSFSDEMNTILDNLAARDFINWLIQTKITD-OH [[Met2]hGLP-2(1-33)] | 0 | 170 | – |

From patent US8933039B2 (NPS Pharmaceuticals, Inc., priority 1995, dated 2015)
